# Read-outs that look alike come from different tables or passages of the source.
# What was measured:
# hCB1 [1] = target: T1, hCB1 (Homo sapiens, UniProt P21554); experiment: Agonism of CB1 receptors expressed in CHO cells, forskolin cAMP assay (Protocol IX.2); assay type: cell-based; design: expressed in transfected cells; host or cells: CHO (h-CB1/CHO, G418-selected); settings: for activation at 10 µM: CHO; for activation at 10 µM / hCB1 Agonism: h-CB1/CHO cells, cAMP, at 10 uM
# Protocol: (§1) IX. Assay for Determining Agonist and Antagonist Activity to CB1 and CB2 Receptors
# (§2) 2. Agonism of CB1/CB2 Receptors Expressed in CHO Cells
# (§3) h-CB1/CHO or h-CB2/CHO cells were grown in HAM's F12 DMEM medium (Sigma) with 10% FBS (Hyclone), 1% penicillin-streptomycin solution and 400 μg/ml of G418 (Sigma). 5000 cells were seeded per well in a 96 well plate and incubated for 24 hours at 37° C. in 5% CO2. On the day of assay, cells were washed with warm Krebs Buffer containing 0.1% fatty acid free (FAF) BSA (Sigma) and re-suspended in the same buffer containing 1 mM IBMX. […] At the end of incubation, cells were lysed using lysis reagent from the cAMP estimation kit and cAMP was quantitated by chemiluminescence method described in the manufacturer's instructions (DiscoveRX). EC50 values were calculated from dose response curves by nonlinear regression analysis using PRISM software.
# hCB2 [2] = target: T2, hCB2 (Homo sapiens, UniProt P34972); experiment: Agonism of CB2 receptors expressed in CHO cells, forskolin cAMP assay (Protocol IX.2); assay type: cell-based; design: expressed in transfected cells; host or cells: CHO (h-CB2/CHO, G418-selected); settings: for IC50: cAMP
# Protocol: as §1, §2
# h-CB1/CHO or h-CB2/CHO cells were grown in HAM's F12 DMEM medium (Sigma) with 10% FBS (Hyclone), 1% penicillin-streptomycin solution and 400 μg/ml of G418 (Sigma). 5000 cells were seeded per well in a 96 well plate and incubated for 24 hours at 37° C. in 5% CO2. On the day of assay, cells were washed with warm Krebs Buffer containing 0.1% fatty acid free (FAF) BSA (Sigma) and re-suspended in the same buffer containing 1 mM IBMX. Test compound or CP 55,940 as a reference compound (30 nM final concentration for CB1 testing and 10 μM of the same for CB2 testing) diluted in FFB+IBMX+Krebs buffer was added to the cells followed by forskolin addition (10 uM final concentration) and incubated for 30 minutes at room temperature. At the end of incubation, cells were lysed using lysis reagent from the cAMP estimation kit and cAMP was quantitated by chemiluminescence method described in the manufacturer's instructions (DiscoveRX). EC50 values were calculated from dose response curves by nonlinear regression analysis using PRISM software.
# hCB2 [3] = target: T2, hCB2; experiment: In vitro binding assay using hCB2-CHO membranes, [3H]-CP-55,940 displacement (Protocol IV); design: expressed in transfected cells; host or cells: CHO (hCB2-CHO, generated in-house); settings: 1 h, read-out: % Displacement Protocol IV
# How it was run: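 Displacement of [3H]-CP-55,940 (0.75 nM) from membranes of CHO cells expressing human CB2 (25-50 μg) was measured in Tris-BSA buffer pH 7.4 with 5 mM MgCl2, 1 mM EDTA, 0.1% BSA, 1 h at 30 °C. Test compounds were at 300 nM final; nonspecific binding defined with 0.5 μM CP-55,940. Values are % displacement of specific binding.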
# hCB2 [4] = target: T2, hCB2; experiment: Antagonism of CB2 receptors expressed in CHO cells, cAMP assay against CP 55,940 (Protocol IX.1); assay type: cell-based; design: expressed in transfected cells; host or cells: CHO (h-CB2/CHO, G418-selected); settings: h-CB2/CHO cells, vs 10 nM CP 55,940; for inhibition at 10 µM: CHO
# Protocol: as §1
# (§4) 1. Antagonism of CB1/CB2 Receptors Expressed in CHO Cells.
# h-CB1/CHO or h-CB2/CHO cells were grown in HAM's F12 DMEM medium (Sigma) with 10% FBS (Hyclone), 1% penicillin-streptomycin solution and 400 μg/ml of G418 (Sigma). 5000 cells were seeded per well in a 96 well plate and incubated for 24 hours at 37° C. in 5% CO2. On the day of assay, cells were washed with warm Krebs buffer containing 0.1% fatty acid free (FAF) BSA (Sigma) and re-suspended in the same buffer containing 1 mM IBMX. Test antagonist or reference compound (AM 251 (1-(2,4-dichlorophenyl)-5-(4-iodophenyl)-4-methyl-N-(1-piperidyl)pyrazole-3-carboxamide) for CB1 and SR144528 for CB2) diluted in FAFBSA+IBMX+Krebs buffer was added to the cells and incubated for 10 minutes at room temperature. CP 55,940 (30 nM final concentration for CB1 testing and 10 nM of the same for CB2 testing) was added to cells followed by forskolin (10 μM final concentration) and incubated for 30 minutes at room temperature. At the end of incubation, cells were lysed using lysis reagent from the cAMP estimation kit and cAMP was quantitated by the chemiluminescence method described in the manufacturer's instructions (DiscoveRX). EC50 values were calculated from dose response curves by nonlinear regression analysis using PRISM software.
# hCB1 [5] = target: T1, hCB1; experiment: Antagonism of CB1 receptors expressed in CHO cells, cAMP assay against CP 55,940 (Protocol IX.1); assay type: cell-based; design: expressed in transfected cells; host or cells: CHO (h-CB1/CHO, G418-selected); settings: for inhibition at 10 µM: read-out: hCB1 Antagonism
# Protocol: as §1, §4
# as §3, with “warm Krebs buffer containing 0.1%” for “warm Krebs Buffer containing 0.1%”, “quantitated by the chemiluminescence method” for “quantitated by chemiluminescence method”
# CB1 = CB1 (Rattus norvegicus, UniProt P20272); experiment: Rat CB1 receptor binding using brain membrane, [3H]SR141716A displacement (Protocol I); design: CB1 receptor present in a rat brain membrane preparation; from tissue; host or cells: rat brain membrane; inhibition: dose or concentration left out as unconfirmed; settings: 1 h; rat brain membrane, [3H]SR141716A displacement; read-out: % Displacement Protocol I
# [6] = h-CB2/CHO cells, read-out: hCB2 Agonism IC50
# [7] = at 10 uM, h-CB1/CHO cells, cAMP, vs 30 nM CP 55,940
# [8] = hCB2 Agonism IC50, h-CB2/CHO cells
# [9] = hCB2-CHO membranes, [3H]-CP-55,940 displacement
# T2 sequence (P34972 whole entry): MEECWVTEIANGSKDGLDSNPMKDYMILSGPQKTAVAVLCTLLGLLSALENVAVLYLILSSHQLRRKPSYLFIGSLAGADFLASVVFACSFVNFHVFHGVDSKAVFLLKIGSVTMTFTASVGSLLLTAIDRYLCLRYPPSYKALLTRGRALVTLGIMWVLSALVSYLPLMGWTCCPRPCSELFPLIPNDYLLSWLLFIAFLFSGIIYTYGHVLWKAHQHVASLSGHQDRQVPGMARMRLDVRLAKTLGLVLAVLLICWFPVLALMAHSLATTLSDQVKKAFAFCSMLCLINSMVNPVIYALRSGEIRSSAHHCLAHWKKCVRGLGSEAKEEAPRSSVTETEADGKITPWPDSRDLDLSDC
# T1 sequence (P21554 whole entry): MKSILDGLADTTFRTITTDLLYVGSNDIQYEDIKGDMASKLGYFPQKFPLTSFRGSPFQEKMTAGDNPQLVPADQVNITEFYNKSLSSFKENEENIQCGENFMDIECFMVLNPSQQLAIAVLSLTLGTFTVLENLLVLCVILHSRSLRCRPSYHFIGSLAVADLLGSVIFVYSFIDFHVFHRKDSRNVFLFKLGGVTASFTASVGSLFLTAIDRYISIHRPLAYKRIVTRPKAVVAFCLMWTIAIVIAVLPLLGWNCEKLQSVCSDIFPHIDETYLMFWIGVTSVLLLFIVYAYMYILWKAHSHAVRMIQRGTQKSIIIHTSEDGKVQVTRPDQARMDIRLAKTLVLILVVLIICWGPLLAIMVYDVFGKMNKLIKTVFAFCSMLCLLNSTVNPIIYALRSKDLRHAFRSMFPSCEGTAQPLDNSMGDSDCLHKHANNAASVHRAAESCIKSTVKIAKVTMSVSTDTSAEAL
# Chain of CB1 (P20272 whole entry): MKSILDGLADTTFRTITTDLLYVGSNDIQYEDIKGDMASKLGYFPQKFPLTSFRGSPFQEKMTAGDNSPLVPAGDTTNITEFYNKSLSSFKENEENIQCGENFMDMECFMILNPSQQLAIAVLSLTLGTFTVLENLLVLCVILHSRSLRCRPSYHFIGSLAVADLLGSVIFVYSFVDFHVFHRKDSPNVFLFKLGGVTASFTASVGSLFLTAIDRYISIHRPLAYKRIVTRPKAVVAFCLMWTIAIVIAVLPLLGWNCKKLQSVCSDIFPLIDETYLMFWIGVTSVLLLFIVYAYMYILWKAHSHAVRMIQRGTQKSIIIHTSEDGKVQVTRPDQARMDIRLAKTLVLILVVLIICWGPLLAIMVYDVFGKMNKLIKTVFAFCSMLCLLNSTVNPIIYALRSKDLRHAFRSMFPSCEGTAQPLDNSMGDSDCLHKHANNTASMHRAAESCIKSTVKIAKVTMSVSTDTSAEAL
SMILES,activation at 10 µM (hCB1 [1]),IC50 (hCB2 [2]; [6]),inhibition at 0.3 µM (hCB2 [3]),inhibition at 10 µM (hCB2 [4]),inhibition at 10 µM (hCB1 [5]; [7]),melting point,hCB1 Agonism (hCB1 [1]),IC50 (hCB2 [2]; [8]),inhibition at 0.3 µM (hCB2 [3]; [9]),inhibition (CB1),"hCB2 Agonism (hCB2 [2]; bare number, no unit or concentration given)",hCB2 Antagonism (hCB2 [4]; at 10 uM),hCB1 Antagonism (hCB1 [5]; [7]),IC50 (hCB1 [1]),inhibition at 10 µM (hCB1 [5]; CHO)
"O=C(Nc1ccc(F)cc1F)c1nn(-c2ccc(Cl)cc2Cl)c2c1C1CCC2C1 (centres unmarked) [Example 244, N(3)-(2,4-Difluorophenyl)-1-(2,4-dichlorophenyl)-4,5,6,7-tetrahydro-1H-4,7-methano-indazole-3-carboxamide]",0%,5.66 nM,88.3%,25.3%,61.5%,152 to 155 °C,,,,,,,,,
"O=C(N[C@@H](CO)c1ccccc1)c1nn(-c2ccc(F)cc2F)c2c1C1CCC2C1 (stereo partly drawn) [Example 320, N(3)-[(1R)-2-Hydroxy-1-phenylethyl]-1-(2,4-difluorophenyl)-4,5,6,7-tetrahydro-1H-4,7-methano-indazole-3-carboxamide]",29.1%,0.76 to 1.25 nM,67.8%,22.5%,0%,,,,,,,,,,
"CC(C)(C)NC(=O)c1nn(-c2ccc(F)cc2)c2c1C1CCC2C1 (centres unmarked) [Example 323, N(3)-(tert-Butyl)-1-(4-fluorophenyl)-4,5,6,7-tetrahydro-1H-4,7-methano-indazole-3-carboxamide]",0%,14.1 nM,82.5%,18%,0%,131 to 133 °C,,,,,,,,,
"CC(C)(C)NC(=O)c1nn(-c2ccc(F)cc2F)c2c1[C@@H]1CC[C@H]2C1 (single isomer, unassigned) [Example 304]",,0.93 nM,,51.6%,0%,,55% at,,,,,,,,
"O=C(NCc1ccccc1F)c1nn(-c2ccc(Cl)cc2Cl)c2c1C1CCC2C1 (centres unmarked) [Example 245, N(3)-(2-Fluorobenzyl)-1-(2,4-dichlorophenyl)-4,5,6,7-tetrahydro-1H-4,7-methano-indazole-3-carboxamide]",0%,,,32.9%,70.7%,54 °C,,50.4 nM,84.8%,,,,,,
"O=C(NNc1cccc(F)c1)c1nn(-c2ccc(Cl)cc2Cl)c2c1C1CCC2C1 (centres unmarked) [Example 266, N(3)-[(3-Fluorophenyl)amino]-1-(2,4-dichlorophenyl)-4,5,6,7-tetrahydro-1H-4,7-methano-indazole-3-carboxamide]",12.1%,,,27.7%,,190 °C,,14 nM,62%,34.5%,,,,,
"O=C(NCc1ccc(F)cc1F)c1nn(-c2ccc(Cl)cc2Cl)c2c1C1CCC2C1 (centres unmarked) [Example 247, N(3)-(2,4-Difluorobenzyl)-1-(2,4-dichlorophenyl)-4,5,6,7-tetrahydro-1H-4,7-methano-indazole-3-carboxamide]",0%,,,29.2%,75.3%,73 to 76 °C,,5.44 nM,79.1%,,,,,,
"O=C(NC1CCCCC1)c1nn(-c2ccccc2)c2c1C1CCC2C1 (centres unmarked) [Example 202, N(3)-Cyclohexyl-1-phenyl-4,5,6,7-tetrahydro-1H-4,7-methano-indazole-3-carboxamide]",0%,,,,0%,107 °C,,,70.1%,28.2%,16.79,,,,
"O=C(NC1CCC1)c1nn(-c2ccc(F)cc2F)c2c1C1CCC2C1 (centres unmarked) [Example 315, N(3)-Cyclobutyl-1-(2,4-difluorophenyl)-4,5,6,7-tetrahydro-1H-4,7-methano-indazole-3-carboxamide]",12.6%,0.16 to 1.76 nM,64.2%,16.1%,1%,123 to 125 °C,,,,,,,,,
"O=C(NCC1CC1)c1nn(-c2ccc(F)cc2F)c2c1C1CCC2C1 (centres unmarked) [Example 314, N(3)-Cyclopropanmethyl-1-(2,4-difluorophenyl)-4,5,6,7-tetrahydro-1H-4,7-methano-indazole-3-carboxamide]",3.41%,8.52 nM,64.9%,22.9%,0%,113 to 115 °C,,,,,,,,,
"O=C(NC(CO)c1ccccc1)c1nn(-c2ccc(F)cc2F)c2c1C1CCC2C1 [Example 302, N5-[(1S)-2-Hydro-1-phenylethyl]-3-(2,4-difluorophenyl)-3,4-diazatricyclo[5.2.1.0.^2,6]deca-2(6),4-diene-5-carboxamide]",19%,9.75 nM,71.8%,0%,,91 °C,,,,,,,,,
"CC(C)(C)NC(=O)c1nn(-c2ccc(F)cc2F)c2c1[C@@H]1CC[C@H]2C1 (single isomer, unassigned) [Example 305]",,2.16 nM,,,,,20% at,,,,,37.45% at,0% at 10 uM,,
"CC(C)(C)NC(=O)c1nn(-c2ccc(F)cc2F)c2c1C1CCC2C1 (centres unmarked) [Example 303, N(3)-(tert-Butyl)-1-(2,4-difluorophenyl)-4,5,6,7-tetrahydro-1H-4,7-methano-indazole-3-carboxamide]",,0.61 nM,89.7%,17.6%,,,,,,,,,,10900 nM,0%

# Reference: patent publication US7923465B2, “Cannabinoid receptor ligands, pharmaceutical compositions containing them, and process for their preparation” (priority 2005, dated 2011)
